For one data set, the system named is rat thoracic aorta. Kind of data set: Contractile curves to noradrenaline in rat isolated aortic rings (Protocol 1). The settings on record: for dose dependency of the antagonising action on noradrenaline contraction: 0.1 and 1 μg/ml; for antagonising the contractile response to noradrenaline (in words): order of potency at 1 μg/ml; for y max, Noradrenaline + Test compound (B): mean ± SEM; for y max Difference (A − B): noradrenaline alone minus noradrenaline + compound. On the procedure: Male Sprague-Dawley rats (250±50 g) were gassed with 80% CO2 and 20% O2 until killed. The thoracic aorta was excised and quickly placed in ice-cold Krebs modified solution composed of NaCl […], […] 4.7 mM, MgSO4 7H2O 1.17 mM, NaHCO3 25 mM, KH2PO4 1.18 mM, CaCl2 2.5 mM, glucose 11 mM and EDTA 0.03 mM. It was then trimmed of fat and connective tissue and cut into 2-3 mm wide rings. Each ring was mounted on two parallel stainless steel hooks in a single water-jacketed 3 ml organ bath containing modified Krebs solution maintained at 37° C. and bubbled with 95% O2 plus 5% CO2. The lower hook was attached to a movable support leg and the upper hook to an FTO3 force transducer (Grass Scientific Instruments, Mitutoyo, Japan) for isometric recordings. Changes in force were amplified (Quadbridge amplifier, Scientific Concepts Inc., Victoria, Australia) and recorded on a MacLab 8E data acquisition system (Adinstruments Pty Ltd., NSW, Australia) linked to an Apple computer (Apple Computer Inc, Cupertina, Calif.). Rings were set at an initial tension of 2 g and allowed to equilibrate for 30 minutes after which time they were re-set to 2 g tension before the commencement of each experimental protocol.
Full concentration-contractile curves were obtained to noradrenaline (0.1 nM-[…]) in the absence and presence of β-estradiol (1 μg/ml); Cpd. 5 (0.1 and 1 μg/ml); Cpd. 7 (0.1 and 1 μg/ml); Cpd. 8 (0.1 and 1 μg/ml) and Cpd. 12 (1 μg/ml) and the vehicle equi-volume DMSO. Only one compound at any one concentration was tested on any one ring from any one animal.
Contractile responses are expressed in g tension (mean+standard error of the mean). Dilatory responses are expressed as a percentage of the contractile force generated by the pre-constricting agent used. Individual concentration-response curves for noradrenaline and acetylcholine±the interventions used were fitted to a logistic equation of the form […] where E is the response, M is the maximum response and K is the concentration eliciting 50% of the maximum response (ie neg log EC50).

For data set [1], the system named is Vascular smooth muscle cells (VSMC) derived from internal mammary artery (IMA). In words: Serum-induced VSMC proliferation, [3H]-thymidine incorporation. The settings on record: for proliferation of IMA-derived VSMC (in words) / proliferation of IMA-derived VSMC at high concentrations (in words): 2.5% FBS; for proliferation of IMA-derived VSMC (in words): 0.01-100 mM tested, Cpd. 7 effect from 0.1 mM up to 1 mM. The data set is classed as cell-based, human. As for the experimental part:
Vascular smooth muscle cells (VSMC) derived from internal mammary artery (IMA) were cultured in 10% FBS-DMEM. Cells were grown to confluence in LG (glucose 5 mM)-medium then trypsinized, diluted with 10% FBS-LG medium to about 10,000 cells/ml and 1 ml of suspension was) aliquoted into four 24-well plates. Cells were then allowed to grow for 2 days to visual confluence. LG serum-free media was changed for 48 h to synchronize most cells at Go/G1.
After 24 h of serum-free medium, cells were treated with the compounds (Cpd. 5, Cpd. 7, Cpd. 8 or Cpd. 12) for 4 h and FBS was added (final concentration 2.5%) over night (18-20 hours). 4 wells were allocated for each treatment:
Cell proliferation was induced by a variety of growth factors such as serum and platelet derived growth factor (PDGF).
Media was changed to LG serum-free DMEM and cells were treated with [^3H]-thymidine at 1 μCi/well for 3 hours. Cells were washed twice with ice cold Dulbecco's PBS. Next, ice cold 0.2M HClO4 (1 ml/well) was added and cells were incubated on ice for 30 min. Cells were then washed three times with 0.5 ml/well of ice cold 0.2M HClO4. Media (0.5 ml/well of 0.2 M NaOH) was replaced and cells were incubate at 37° C. After 1 hour, cells were treated with acetic acid (6%, 0.2 ml/well), transferred to scintillation vials with 3 ml scintillation liquid (Instagel) and counted for 2 min per vial.
On the technique in general: Dividing cells build labelled thymidine or BrdU into new DNA.

Data set [2] addresses T1, Soybean 15-lipoxygenase (SLO) (Glycine max, UniProt P08170).
T1 construct: purchased Sigma, St. Louis, Mo
T1 sequence (P08170 1-839): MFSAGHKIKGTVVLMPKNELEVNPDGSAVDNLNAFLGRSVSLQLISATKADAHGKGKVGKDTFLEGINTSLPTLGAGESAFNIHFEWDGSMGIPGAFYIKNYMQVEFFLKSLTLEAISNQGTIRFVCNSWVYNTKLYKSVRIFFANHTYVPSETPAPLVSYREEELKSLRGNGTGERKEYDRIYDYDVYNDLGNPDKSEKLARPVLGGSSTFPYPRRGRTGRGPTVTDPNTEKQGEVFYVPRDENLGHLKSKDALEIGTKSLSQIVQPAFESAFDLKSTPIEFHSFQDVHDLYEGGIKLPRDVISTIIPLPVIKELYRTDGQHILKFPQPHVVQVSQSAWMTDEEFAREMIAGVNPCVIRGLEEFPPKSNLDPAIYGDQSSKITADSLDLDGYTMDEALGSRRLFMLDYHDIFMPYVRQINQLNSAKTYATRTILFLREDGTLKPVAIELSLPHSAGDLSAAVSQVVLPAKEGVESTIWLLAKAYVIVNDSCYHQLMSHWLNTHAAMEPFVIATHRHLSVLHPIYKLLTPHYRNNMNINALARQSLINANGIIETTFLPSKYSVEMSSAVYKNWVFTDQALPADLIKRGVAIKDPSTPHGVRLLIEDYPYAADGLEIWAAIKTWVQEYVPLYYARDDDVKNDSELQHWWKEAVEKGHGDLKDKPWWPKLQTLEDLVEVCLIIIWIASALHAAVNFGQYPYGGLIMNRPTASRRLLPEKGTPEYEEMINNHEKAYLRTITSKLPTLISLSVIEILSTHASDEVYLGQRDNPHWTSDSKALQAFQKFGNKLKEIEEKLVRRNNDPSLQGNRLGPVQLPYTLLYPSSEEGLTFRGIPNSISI
Kind of data set: Inhibition of lipoxygenase, SLO-induced oxidation of linoleate. It is filed as biochemical. The arrangement: dose or concentration left out as unconfirmed. On the procedure: Soybean 15-lipoxygenase (SLO) is a suitable model of 15-lipoxygenase and was therefore used to assess the ability of Cpd. 7, Cpd. 8 and Cpd. 12 to inhibit this enzyme. SLO-induced oxidation of linoleate was performed as described previously (Upston et al., 1996). Briefly, linoleate (100 mM) in PBS was oxidized by SLO (60 U/mL) in the absence and presence of 10 mM Cpd. 7, Cpd. 8 or Cpd. 12, or 100 mM eicosatetraynoic acid (ETYA, positive control). Formation of linoleate hydroperoxide was monitored by UV 234 nm using the Perkin Elmer's UV/Vis Lambda 40 spectrophotomneter. The test was performed twice as single analysis. An appropriate concentration of alcohol (ethanol and isopropanol; 0.13% -0.2% v/v) was included in the respective control samples.

For a further data set, the system named is LDL receptor. In words: LDL receptor expression on HepG2 cells, [125I]-LDL specific binding. It is filed as cell-based, human. Particulars: 10 μM; for concentration dependence of LDL receptor expression: 50 nM, 500 nM; for LDL receptor expression, Experiment 3 / LDL receptor expression, Experiment 2 / LDL receptor expression, Experiment 1: 48 hours; for LDL receptor expression, Experiment 3: control 130 ± 18; for LDL receptor expression, Experiment 2: control 261 ± 57; for LDL receptor expression, Experiment 1: control 283 ± 32.

Data on four molecules can be found in US20050119301A1, “Treatment of restenosis” (priority 2001, published 2005).

Entries after “also recorded” stand apart in the source; their conditions may differ.

For `O=C1c2ccc(O)cc2OCC1c1ccc(O)cc1` (centres unmarked) [Cpd. 5], in the data set on rat thoracic aorta, the “dose dependency of the antagonising action on noradrenaline contraction” value (from here on “dose dependency”) is recorded as “dose dependent” and the “antagonising the contractile response to noradrenaline (in words)” value (“antagonising the contractile response” below) is reported as “active but less potent than β-estradiol; also recorded: equipotent but less potent than Cpd. 12”. Besides, in the data set on rat thoracic aorta (test compound 0.1 μg/ml), the “y max, Noradrenaline + Test compound (B)” value is recorded as 1.50 ± 0.32 g tension and the “y max Difference (A − B)” value is reported as 0.81 ± 0.25 g tension. Also, in the data set with rat thoracic aorta (test compound 1 μg/ml), the “y max, Noradrenaline + Test compound (B)” value was determined as 1.13 ± 0.20 g tension and the “y max Difference (A − B)” value was 1.02 ± 0.24 g tension. The “proliferation of IMA-derived VSMC (in words)” value in data set [1] was “relatively inactive”.

Consider `Oc1ccc(C2COc3cc(O)ccc3C2O)cc1` (centres unmarked) [Cpd. 7], for which, in the data set on rat thoracic aorta, the “dose dependency” value is recorded as “dose dependent” and the “antagonising the contractile response” value was “active but less potent than β-estradiol; also recorded: equipotent but less potent than Cpd. 12”. In addition, in the data set with rat thoracic aorta (test compound 0.1 μg/ml), the “y max, Noradrenaline + Test compound (B)” value came out at 1.41 ± 0.13 g tension and the “y max Difference (A − B)” value was determined as 0.25 ± 0.25 g tension. Also, in the data set on rat thoracic aorta (test compound 1 μg/ml), the “y max, Noradrenaline + Test compound (B)” value was 1.26 ± 0.34 g tension and the “y max Difference (A − B)” value was found to be 1.38 ± 0.27 g tension. The “inhibition of soybean 15-lipoxygenase (in words)” value (“inhibition” below) in data set [2] was “neither Cpd. 7 nor Cpd. 8 were able to inhibit SLO”. Further, the “proliferation of IMA-derived VSMC (in words)” value in data set [1] is recorded as “significantly inhibited proliferation”. For the same molecule, the “proliferation of IMA-derived VSMC at high concentrations (in words)” value in data set [1] (10 mM and 100 mM) was “relative increase in proliferation”. Also, in the data set with LDL receptor, the “concentration dependence of LDL receptor expression” value is “increased concentration-dependently”; the “LDL receptor expression, Experiment 3” value is 194 ± 46 fmol LDL receptors per mg cell protein; the “LDL receptor expression, Experiment 2” value is 306 ± 70 fmol LDL receptors per mg cell protein; the “LDL receptor expression, Experiment 1” value is 332 ± 46 fmol LDL receptors per mg cell protein.

`Oc1ccc(C2COc3cc(O)ccc3C2O)cc1` (centres unmarked) [Cpd. 8]: in the data set with rat thoracic aorta, the “dose dependency” value is recorded as “dose dependent” and the “antagonising the contractile response” value was “active but less potent than β-estradiol; also recorded: the least potent”. For the same molecule, in the data set on rat thoracic aorta (test compound 0.1 μg/ml), the “y max, Noradrenaline + Test compound (B)” value is 1.34 ± 1.20 g tension and the “y max Difference (A − B)” value is recorded as 0.56 ± 0.15 g tension. Besides, in the data set with rat thoracic aorta (test compound 1 μg/ml), the “y max, Noradrenaline + Test compound (B)” value amounted to 0.86 ± 0.31 g tension and the “y max Difference (A − B)” value amounted to 0.69 ± 0.28 g tension. In data set [2], the “inhibition” value is listed as “neither Cpd. 7 nor Cpd. 8 were able to inhibit SLO”. For the same molecule, the “proliferation of IMA-derived VSMC at high concentrations (in words)” value in data set [1] (10 mM and 100 mM) is listed as “caused a significant increase in proliferation”. In addition, in the data set on LDL receptor, the “concentration dependence of LDL receptor expression” value is “no clear concentration-dependent effect”; the “LDL receptor expression, Experiment 3” value is recorded as 143 ± 34 fmol LDL receptors per mg cell protein; the “LDL receptor expression, Experiment 2” value is listed as 273 ± 57 fmol LDL receptors per mg cell protein; the “LDL receptor expression, Experiment 1” value is on record as 315 ± 24 fmol LDL receptors per mg cell protein.

Turning to `Oc1ccc(C2=Cc3ccc(O)cc3OC2)cc1` [Cpd. 12], in the data set on rat thoracic aorta, the “antagonising the contractile response” value is “comparable to β-estradiol; also recorded: most effective and comparable to 170-estradiol”. In the data set on rat thoracic aorta (test compound 1 μg/ml), the “y max, Noradrenaline + Test compound (B)” value came to 0.80 ± 0.36 g tension and the “y max Difference (A − B)” value is 2.27 ± 0.68 g tension. Besides, in data set [2], the “inhibition” value is “effective inhibitor of lipoxygenase type-1”. In data set [1] (10 mM and 100 mM), the cell damage entry was “caused significant cell damage”. Moreover, in data set [1], the “proliferation of IMA-derived VSMC (in words)” value is listed as “did not appear to inhibit cellular proliferation”. In addition, in the data set on LDL receptor, the “LDL receptor expression, Experiment 3” value is recorded as 174 ± 35 fmol LDL receptors per mg cell protein; the “LDL receptor expression, Experiment 2” value was 161 ± 35 fmol LDL receptors per mg cell protein; the “LDL receptor expression, Experiment 1” value is reported as 290 ± 42 fmol LDL receptors per mg cell protein.
